According to patent US5667764A, “Compounds, compositions and methods for binding bio-affecting substances to surface membranes of bio-particles” (Zynaxis, Inc., priority 1992, dated 1997):

Legend:
[1] = tested on: red blood cell ghosts (plasma membrane); test: Membrane retention coefficient (MRC) in red blood cell ghosts; assay type: binding; settings: 24 hr; Table II
Outline: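 Red blood cell ghosts (~1×10^9/ml) were labelled 10 min with compound diluted in iso-osmotic sucrose from ethanol stocks, then washed repeatedly in PBS with 10% FBS over ≥24 h. Total and supernatant compound were measured after n-butanol extraction (fluorescence for fluorescent compounds), and MRC was calculated from these at each wash or time point.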

[2] = tested on: membrane ghosts; test: Membrane binding stability (MBS) assay in membrane ghosts with 5% albumin; settings: 24 hours; for MBS: Table III
Description: Determination of Membrane Binding Stability
For example, very stable binding to membranes might be required for applications such as delivery of therapeutic radionuclides to tumor sites, as loss of compound could lead to the radionuclide producing its toxic effect at non-tumor sites. On the other hand, more rapid loss of compound from biomembranes may be desirable for application involving controlled delivery rates of therapeutic agents. Accordingly, there is described hereinbelow an assay for determining MBS under conditions approximating those found in vivo.
In carrying out this assay, approximately physiological concentrations of serum albumin (5%) are used. […] To better approximate the effects of large fluid volumes to which labelled cells are exposed in vivo, the assay for MBS is carried out by suspending a decreasing number of labeled membrane ghosts in a fixed volume of albumin-containing saline. At 24 hours, the total amount of label present is determined by sampling the well mixed suspension; subsequently, the membrane ghosts are pelleted by centrifugation and the amount of label released into the supernatant is determined and expressed as a percent of total label. Percent retention is plotted against number of ghosts per ml. of suspension, and MBS is determined as the area under the curve between 5×10^7 ghosts/ml. and 4×10^8 ghosts/ml.

[3] = tested on: cells (red cell membranes); test: Number of molecules of compound incorporated per cell; assay type: cell-based; settings: 10 μM compounds
Description: Number of molecules of compound incorporated per cell was determined for cells labeled with 10 μM compounds. An aliquot of 10^6 cells (10 ul) was withdrawn from the washed cells after final resuspension and counting, compounds were extracted from the cell membrane by admixture with 250 μl of 100% ethanol, and the fluorescence intensity of 200 μl of the extract was measured using a Fluoroskan II fluorescence microplate reader and filter combination. Concentration of compound in each extract was determined from a calibration curve of known compound concentrations made up in 100% ethanol and measured on the Fluoroskan II. Number of molecules of compound per cell was then calculated from the known extract concentration, total volume of extract, and known number of cells extracted. Calculated values were (4.0±0.4)×10^6 for compound T (1.3±0.2)×10^6 for compound AA and (2.5±0.7)×10^6 for compound AB.

[4] = tested on: erythrocyte membrane ghosts; test: Relative membrane retention in erythrocyte membrane ghosts (iodination study); assay type: binding; settings: 24 hours, 37° C., PBS+EDTA+5% BSA
Description: Relative membrane retention was determined using erythrocyte membrane ghosts prepared by NH4 Cl lysis (Slezak and Horan, Blood, supra). Ghosts were labeled at 4×10^8 /ml with 10 μM compounds for 5 minutes at room temperature, using previously described procedures. However, post-labeling washes were carried out using PBS containing 1 mM EDTA and 5% BSA. After the final wash, ghosts were resuspended at 4×10^8 /ml in PBS+EDTA+5% BSA and incubated for 24 hours at 37° C. At 24 hours, duplicate 50 μl aliquots were withdrawn from a) the well mixed suspension of ghosts (for determination of total compound present), and b) the supernatant remaining after ghosts were pelleted for 15 minutes at 12,500×g (for determination of unbound compound present). Aliquots were extracted by admixture with 200 μl of 100% ethanol and fluorescence intensity of each extract measured using the Fluoroskan II fluorescence microplate reader. Percent compound retained was calculated as
total compound--unbound compound×100/total compound

[5] = tested on: synovial cells; test: Synovial distribution after intra-articular injection; assay type: in vivo; settings: 1 hour after injection into the knee, 10 μM
Description: To estimate the homogeneity or heterogeneity of incorporation by synovial cells after intra-articular injection, approximately 0.1 mL of a 10 μM solution of an iodide salt of compound T (see Example 2, above) in 300 mOsM pH 7.0 glucose was injected into the knee as described in Example 10. After 1 hour, the animal was sacrificed, and both injected and uninjected knee joints were dissected. Preparation of whole joint cross sections was not feasible because demineralization is required to cut thin sections and demineralizing solvents remove compounds of the invention from tissue. Therefore the infrapatellar fat pads which underlie the kneecap and form one boundary of the synovial cavity were carefully removed, snap frozen on dry ice, and stored at -80° until frozen sections could be prepared. Thick (10μ) cryostat sections were cut, adhered to glass slide, and evaluated by light and fluorescence microscopy.
(The synovial layer is only 1-2 cells thick in a normal joint but becomes thickened due to hyperproliferation in an arthritic joint.) The rest of the tissue was composed primarily of large fat cells.

[6] = In vivo loss of dye from labeled, reinjected erythrocytes; settings: rabbit, iv
Description: *Half life for loss of dye from rabbit erythrocytes after labeling and

[7] = tested on: cells (red cells); settings: 20 uM
[8] = tested on: rabbit hind limb (femoral arterial bed), substance P receptors; test: Vascular response in rabbit blood perfused hind limb preparation; assay type: in vivo; settings: for ED50: calculated by logistic function, three rabbits; for Effect of antagonist [D-Pro^2,D-Trp^7.9]-substance P on the response: during infusion of antagonist; for Dose at which maximum fall in pressure is achieved / Threshold (minimum) dose required to produce a fall in perfusion pressure / Hind-limb perfusion pressure response: local injection; for Hind-limb perfusion pressure response: no antagonist
Description: The in vivo receptor pharmacology of the compound produced in Example 3d., above, was studied in a rabbit blood perfused hind limb preparation similar to that described by U. Forstermann et al., J. Pharmacol. Exp. Ther., 234: 1055-61 (1987). Blood from a pentobarbital anesthetized, artificially ventilated rabbit was withdrawn from a cannulated carotid artery, passed within medical grade silastic tubing through a constant speed roller pump, and directed to a cannulated femoral artery. Distal perfusion pressure in the femoral arterial bed was measured (in mm Hg) by means of a micropressure transducer (Millar) passed down the perfusion tubing so as to lie just beyond the tip of the femoral catheter. Initially, pump speed was adjusted so that distal perfusion pressure approximated systemic mean arterial blood pressure after which blood flow was kept constant for the remainder of each experiment. Changes in resistance then varied directly as distal perfusion pressure in a manner similar to that described by Ohm's law, such that:
Vascular Resistance=Perfusion Pressure Blood Flow
Thus, by maintaining blood flow constant for the duration of each experiment, changes in distal perfusion pressure directly reflected vascular resistance such that a decrease in pressure signifies vasodilation and an increase in pressure signifies vasoconstriction. Direct injection into the perfusion circuit could thus be used to assess the vascular biology and pharmacology of substances believed to exert actions on in vivo vascular smooth muscle tone.

[9] = tested on: rabbit red blood cells; settings: native Substance P; cited from earlier work
[10] = tested on: rabbit red blood cells; test: Binding of conjugate to washed rabbit red blood cells, flow cytometry; assay type: cell-based; settings: ex vivo, 100 uM
Description: The conjugate of Example 3d. […] The fluorescent moiety of the conjugate allows its ready detection on RBCs by flow cytometry. When conjugate labeled rabbit RBCs are injected in the rabbit hind-limb, a reduction in perfusion pressure occurs, the magnitude of which is related to the number of injected cells.

[11] = tested on: human RBCs; test: Flow cytometry of conjugate-labeled human RBCs with anti-substance P antibody; assay type: cell-based
Description: Specifically, untreated RBCs and conjugate-labeled RBCs were analyzed to determine if:
1. The conjugate was incorporated on the surface of cells (FIG. 3A comparison).
2. Fluorescein isothiocyanate (FITC) conjugated goat anti-rabbit antibodies nonspecifically bound to the conjugate-labeled or non-labeled cells (FIG. 3B comparison), or
3. rabbit anti-substance P antibodies+FITC anti-rabbit antibodies specifically bound to the conjugate-labeled RBCs (FIG. 3C comparison).

[12] = tested on: rabbit red blood cells; test: In vivo stability of conjugate on red blood cells
Description: To study the in vivo characteristics of red blood cells labeled with the conjugate of Example 3d., above, 0.5 ml of fresh anticoagulated blood from each of 2 rabbits was labeled with the conjugate (final concentration, 10 μM) and injected back in the same rabbit from which the blood was taken. After the conjugate labeling but prior to injection, an aliquot of labeled cells was examined by flow cytometry to insure adequate labeling. Following in vivo administration of the labeled cells, blood samples were removed at 30 minutes, and then 1, 2, 3, 4, and 7 days and examined by flow cytometry for fluorescent cells.

Row | MBS [2] [%] | SMILES | Number of molecules of compound incorporated per cell [3] | Percent compound retained [4] [%] | ED50 [8] [pmol] | Effect of antagonist [D-Pro^2,D-Trp^7.9]-substance P on the response [8] | Dose at which maximum fall in pressure is achieved [8] [pmol] | Threshold (minimum) dose required to produce a fall in perfusion pressure [8] | Hind-limb perfusion pressure response [8] | other results
1 | 85 ± 1.7 | CCCCCCCCCCCCCCCCCCCCCCN1C(=CC=CC2=[N+](CCCCCCCCCCCCCC)c3ccccc3C2(C)C)C(C)(C)c2ccccc21 [T] | (4.0±0.4)×10^6 molecules of compound per cell | 91.9±2.9 |  |  |  |  |  | MRC# (at 24 hr.) [1]: 97 ± 0.1; MBS (% of max.) ([2]; Table II): 85 ± 1.7 % of max.; Labeling of infrapatellar fat pad cross sections [5]: bright and relatively homogeneous labeling was essentially confined to the synovial cell layer; half-life [6]: 130 days
2 | 91 ± 0.5 | CCCCCCCCCCCCCCCCCCCCCC[N+]1=C(C=CC=C2N(CCCCCCCCCCCCCC)c3ccc(CNC=O)cc3C2(C)C)C(C)(C)c2ccccc21 [AB] | (2.5±0.7)×10^6 molecules of compound per cell | 96.8±1.3 |  |  |  |  |  | Viability and recovery [7]: 70-80%
3 |  | CSCC[C@H](NC(=O)[C@H](CC(C)C)NC(=O)CNC(=O)[C@H](Cc1ccccc1)NC(=O)[C@H](Cc1ccccc1)NC(=O)[C@H](CCC(N)=O)NC(=O)[C@H](CCC(N)=O)NC(=O)[C@@H]1CCCN1C(=O)[C@H](CCCCN)NC(=O)[C@@H]1CCCN1C(=O)[C@@H](N)CCCNC(=N)N)C(N)=O [Substance P, reference compound] |  |  | 0.13 | inhibited by [D-Pro^2,D-Trp^7.9 ]-substance P | 3 to 10 | approximately 0.003 pmoles | brief, dose-related decreases in hind-limb perfusion pressure | Relative potency of substance P vs conjugate ([8]; ratio of ED50): 250 fold; Lifetime in circulation [9]: minutes
4 |  | CCCCCCCCCCCCCCCCCCCCCC[N+]1=C(C=CC=C2N(CCCCCCCCCCCCCC)c3ccc(CNC(=O)c4ccc(C(=O)NCCCC[C@H](NC(=O)[C@@H]5CCCN5C(=O)[C@@H](N)CCCNC(=N)N)C(=O)N5CCC[C@H]5C(=O)N[C@@H](CCC(N)=O)C(=O)N[C@@H](CCC(N)=O)C(=O)N[C@@H](Cc5ccccc5)C(=O)N[C@@H](Cc5ccccc5)C(=O)NCC(=O)N[C@@H](CC(C)C)C(=O)N[C@@H](CCSC)C(N)=O)cc4)cc3C2(C)C)C(C)(C)c2ccccc21 [conjugate of Example 3d] |  |  | 34 | inhibited by [D-Pro^2,D-Trp^7.9 ]-substance P | 1000 | 1 to 10 pmol | brief, dose-related decreases in hind-limb perfusion pressure | Perfusion pressure response to conjugate labeled RBCs ([8]; 10^6 -10^9 labeled RBCs injected): graded decreases in perfusion pressure in the rabbit hind limb preparation; Hind-limb perfusion pressure response ([8]; listed as Substance P-lipophilic cyanine conjugate of Example 3.d.): capable of vasodilative activity which is qualitatively similar to that of native Substance P; Vasodilator activity of supernatant fraction of labeled RBCs ([8]; supernatant fractions of labeled RBCs): contained a significant portion of the biological activity of the original cell suspension; Binding to red blood cells [10]: readily binds to washed rabbit red blood cells; Red fluorescent signal of labeled cells ([11]; 10 μM, FIG. 3A): increased red fluorescent signal when compared with the unlabeled cells; Recognition of cell-bound Substance P by anti-substance P antibody ([11]; FIG. 3C): significant amount of both green and red fluorescence detectable on the cells; In vivo dissociation from labeled cells ([12]; up to 7 days): relatively slowly; Binding to red cells and effect in circulation ([12]; vs free peptide): bind stably to red cells and to provide a protracted therapeutic effect in circulation
